Measured values as given in paper PMC11208336 (Frontiers in Cellular and Infection Microbiology, 2024).

Molecular target: T1, HmuY^Pe (Porphyromonas endodontalis, UniProt C3JC46)
T1 construct: gene POREN0001_0444
Experiment: biochemical

T1 sequence (C3JC46 entry or part of it): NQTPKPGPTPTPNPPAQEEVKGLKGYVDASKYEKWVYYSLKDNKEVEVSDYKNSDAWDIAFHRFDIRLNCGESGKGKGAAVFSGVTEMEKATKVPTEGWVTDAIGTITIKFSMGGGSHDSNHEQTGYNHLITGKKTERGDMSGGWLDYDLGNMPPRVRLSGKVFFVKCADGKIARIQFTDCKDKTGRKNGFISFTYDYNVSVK

C=CC1=C(C)C2=Cc3c(C=C)c(C)c4[n]3[Fe][n]3c(c(C)c(CCC(=O)O)c3=CC3=NC(=C4)C(C)=C3CCC(=O)O)=CC1=N2 [Fe(II)heme]
Kd: 41 nM
